Earlier results in patent publication US5843891A, “Pharmaceutical acceptable compositions containing an alcohol and a hydrophobic drug” (priority 1993, dated 1998).

Details: in water at 20° C.

| solubility in water | SMILES |
| --- | --- |
| 0.05 g per 100 g | CCCCCCCCO [1-octyl alcohol] |
| infinitely soluble | CCO [ethyl alcohol] |
| 0.6 g per 100 g | CCCCCCO [Example 1-hexyl, 1-hexyl] |

| SMILES | solubility in water |
| --- | --- |
| CCCCCCCCCCO [1-decyl alcohol] | essentially insoluble |
